The term IC50 denotes the concentration needed to halve the response being measured.

The target of the test is Factor D (Homo sapiens, UniProt P00746). Description: Factor D esterolytic assay (Z-Lys-SBzl thioester substrate, DTNB, 405 nm). As to conditions: substrate Z-Lys-SBzl 1.29 mM, 100 mM HEPES, 500 mM NaCl, pH 7.5, 10% DMSO, tested a minimum of three times. The format is biochemical. The procedure, abridged: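 Human Factor D hydrolysis of Z-Lys-SBzl (1.29 mM) monitored at 405 nm via DTNB thiol detection for 600 s, 690 nm background subtracted. Buffer 100 mM HEPES, 500 mM NaCl, pH 7.5, 10% DMSO; substrate added immediately or after room-temperature preincubation. IC50 from percent inhibition of rate, at least three tests.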
Chain of Factor D (P00746 26-253): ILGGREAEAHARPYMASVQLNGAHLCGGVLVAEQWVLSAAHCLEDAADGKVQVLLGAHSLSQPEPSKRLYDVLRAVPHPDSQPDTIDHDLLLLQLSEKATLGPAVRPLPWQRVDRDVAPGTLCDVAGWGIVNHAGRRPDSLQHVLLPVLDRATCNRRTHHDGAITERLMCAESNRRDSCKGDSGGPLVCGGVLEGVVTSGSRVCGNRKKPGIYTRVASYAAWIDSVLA
Turning to `Nc1ncnc2c1c(-c1ccccc1)cn2CC(=O)N1C[C@H](F)C[C@H]1C(=O)NCc1cccc(Cl)c1F` [Compound 135a, (2S,4R)-1-(2-(4-amino-5-phenyl-7H-pyrrolo[2,3-d]pyrimidin-7-yl)acetyl)-N-(3-chloro-2-fluorobenzyl)-4-fluoropyrrolidine-2-carboxamide], the IC50 fell in the range of 100 to 1000 nM. With `Cc1cc(-c2ccco2)cc2c3c(N)ncnc3n(CC(=O)N3[C@@H]4C[C@@H]4C[C@H]3C(=O)Nc3cccc(Br)n3)c12` [Compound 370a, (1R,3S,5R)-2-(2-(4-amino-6-(furan-2-yl)-8-methyl-9H-pyrimido[4,5-b]indol-9-yl)acetyl)-N-(6-bromopyridin-2-yl)-2-azabicyclo[3.1.0]hexane-3-carboxamide], the IC50 is less than 100 nM. Take `C[C@@]12C[C@@H](C(=O)Nc3cccc(Br)n3)N(C(=O)Cn3c4ccc(-c5ccco5)cc4c4c(N)ncnc43)[C@@H]1C2` [Compound 336c, (1R,3S,5R)-2-(2-(4-amino-6-(furan-2-yl)-9H-pyrimido[4,5-b]indol-9-yl)acetyl)-N-(6-bromopyridin-2-yl)-5-methyl-2-azabicyclo[3.1.0]hexane-3-carboxamide]: the IC50 was less than 100 nM. For `COCc1ccc2c(c1)c1c(N)ncnc1n2CC(=O)N1[C@H](C(=O)Nc2cccc(Br)n2)C[C@@]2(C)C[C@@H]12` [Compound 340a, (1R,3S,5R)-2-(2-(4-amino-6-(methoxymethyl)-9H-pyrimido[4,5-b]indol-9-yl)acetyl)-N-(6-bromopyridin-2-yl)-5-methyl-2-azabicyclo[3.1.0]hexane-3-carboxamide] the value was less than 100 nM; for `C[C@@]12C[C@@H](C(=O)Nc3cccc(Cl)n3)N(C(=O)Cn3c4ccc(C(F)(F)F)cc4c4c(N)ncnc43)[C@@H]1C2` [Compound 269c, (1R,3S,5R)-2-(2-(4-amino-6-(trifluoromethyl)-9H-pyrimido[4,5-b]indol-9-yl)acetyl)-N-(6-chloropyridin-2-yl)-5-methyl-2-azabicyclo[3.1.0]hexane-3-carboxamide], less than 100 nM; for `CC1(C)CCCC(NC(=O)[C@@H]2C[C@H]3C[C@H]3N2C(=O)Cn2cnc3c(N)ncnc32)C1` (stereo partly drawn) [Compound 97b, (1R,3S,5R)-2-(2-(6-amino-9H-purin-9-yl)acetyl)-N-(3,3-dimethylcyclohexyl)-2-azabicyclo[3.1.0]hexane-3-carboxamide], more than 1000 nM. In the case of `Cc1cc2c3c(N)ncnc3n(CC(=O)N3[C@@H]4C[C@@H]4C[C@H]3C(=O)Nc3cccc(Br)n3)c2cc1F` [Compound 384g, (1R,3S,5R)-2-(2-(4-amino-7-fluoro-6-methyl-9H-pyrimido[4,5-b]indol-9-yl)acetyl)-N-(6-bromopyridin-2-yl)-2-azabicyclo[3.1.0]hexane-3-carboxamide], the IC50 is less than 100 nM. Regarding `CCc1ccc2c(c1)c1c(N)ncnc1n2CC(=O)N1[C@@H]2C[C@@H]2C[C@H]1C(=O)Nc1cccc(Br)n1` [Compound 187c, (1R,3S,5R)-2-(2-(4-amino-6-ethyl-9H-pyrimido[4,5-b]indol-9-yl)acetyl)-N-(6-bromopyridin-2-yl)-2-azabicyclo[3.1.0]hexane-3-carboxamide], the IC50 was less than 100 nM. As for `Nc1ncnc2c1c1nc(C(F)(F)F)ccc1n2CC(=O)N1[C@@H]2C[C@@H]2C[C@H]1C(=O)Nc1cccc(Br)n1` [Compound 234a, (1R,3S,5R)-2-(2-(4-amino-6-(trifluoromethyl)-9H-pyrido[2′,3′:4,5]pyrrolo[2,3-d]pyrimidin-9-yl)acetyl)-N-(6-bromopyridin-2-yl)-2-azabicyclo[3.1.0]hexane-3-carboxamide], the figure is less than 100 nM; as for `C[C@H](NC(=O)[C@@H]1C[C@H]2C[C@H]2N1C(=O)Cn1ccc2c(N)ncnc21)c1cccc(Cl)c1F` [Compound 86b, (1R,3S,5R)-2-(2-(4-amino-7H-pyrrolo[2,3-d]pyrimidin-7-yl)acetyl)-N—((S)-1-(3-chloro-2-fluorophenyl)ethyl)-2-azabicyclo[3.1.0]hexane-3-carboxamide], 100 to 1000 nM; as for `NC(=O)c1cnc2c(ccn2CC(=O)N2C[C@H](F)C[C@H]2C(=O)NCc2cccc(Cl)c2F)c1N` [Compound 144g, 4-amino-1-(2-((2S,4R)-2-((3-chloro-2-fluorobenzyl)carbamoyl)-4-fluoropyrrolidin-1-yl)-2-oxoethyl)-1H-pyrrolo[2,3-b]pyridine-5-carboxamide], 100 to 1000 nM.

Take `Nc1ncnc2c1c1cc(C(F)(F)F)cc(F)c1n2CC(=O)N1[C@@H]2C[C@@H]2C[C@H]1C(=O)Nc1cccc(Br)n1` [Compound 369g, (1R,3S,5R)-2-(2-(4-amino-8-fluoro-6-(trifluoromethyl)-9H-pyrimido[4,5-b]indol-9-yl)acetyl)-N-(6-bromopyridin-2-yl)-2-azabicyclo[3.1.0]hexane-3-carboxamide]: the IC50 was less than 100 nM.

Take `Cc1ccc(Br)nc1NC(=O)[C@@H]1C[C@@](C)(F)CN1C(=O)Cn1c2ccc(C(F)(F)F)cc2c2c(N)ncnc21` [Compound 209b, (2S,4R)-1-(2-(4-amino-6-(trifluoromethyl)-9H-pyrimido[4,5-b]indol-9-yl)acetyl)-N-(6-bromo-3-methylpyridin-2-yl)-4-fluoro-4-methylpyrrolidine-2-carboxamide]: the half-maximal inhibitory concentration (IC50) is less than 100 nM. Take `COC(=O)c1cnc2c(ccn2CC(=O)N2C[C@H](F)C[C@H]2C(=O)NCc2cccc(Cl)c2F)c1N` [Compound 147a, methyl 4-amino-1-(2-((2S,4R)-2-((3-chloro-2-fluorobenzyl)carbamoyl)-4-fluoropyrrolidin-1-yl)-2-oxoethyl)-1H-pyrrolo[2,3-b]pyridine-5-carboxylate]: the IC50 is more than 1000 nM.

As to `Nc1ncnc2c1ncn2CC(=O)N1[C@@H]2C[C@@H]2C[C@H]1C(=O)NCC1CC1(Cl)Cl` (stereo partly drawn) [Compound 103b, (1R,3S,5R)-2-(2-(6-amino-9H-purin-9-yl)acetyl)-N-((2,2-dichlorocyclopropyl)methyl)-2-azabicyclo[3.1.0]hexane-3-carboxamide], the IC50 lay within 100 to 1000 nM. For `C[C@@]12C[C@@H](C(=O)Nc3cccc(Br)n3)N(C(=O)Cn3c4ccc(-c5ccc(F)cc5)cc4c4c(N)ncnc43)[C@@H]1C2` [Compound 337a, (1R,3S,5R)-2-(2-(4-amino-6-(4-fluorophenyl)-9H-pyrimido[4,5-b]indol-9-yl)acetyl)-N-(6-bromopyridin-2-yl)-5-methyl-2-azabicyclo[3.1.0]hexane-3-carboxamide] the value was less than 100 nM; for `COc1cc(Br)nc(NC(=O)[C@@H]2C[C@H]3C[C@H]3N2C(=O)Cn2c3ncnc(N)c3c3cc(C(F)(F)F)cc(C)c32)c1` [Compound 344c, (1R,3S,5R)-2-(2-(4-amino-8-methyl-6-(trifluoromethyl)-9H-pyrimido[4,5-b]indol-9-yl)acetyl)-N-(6-bromo-4-methoxypyridin-2-yl)-2-azabicyclo[3.1.0]hexane-3-carboxamide], less than 100 nM; for `COC(=O)c1cc(C)c2c(c1)c1c(N)ncnc1n2CC(=O)N1[C@@H]2C[C@@H]2C[C@H]1C(=O)Nc1cccc(Br)n1` [Compound 217a, methyl 4-amino-9-(2-((1R,3S,5R)-3-((6-bromopyridin-2-yl)carbamoyl)-2-azabicyclo[3.1.0]hexan-2-yl)-2-oxoethyl)-8-methyl-9H-pyrimido[4,5-b]indole-6-carboxylate], less than 100 nM.

The values are drawn from US12679843B2, “Pyrrolopyrimidine amines as complement inhibitors” (BioCryst Pharmaceuticals, Inc., priority 2020, dated 2026).
